From PMC7914897, “Cytotoxic Potential of a-Azepano- and 3-Amino-3,4-SeCo-Triterpenoids” (International Journal of Molecular Sciences, 2021)
Read-outs that look alike come from different tables or passages of the source.

Assays:
[1] = system: LOX IMVI (Melanoma); assay: NCI-60 screen (SRB, 48 h); type: cell-based; settings: Homo sapiens
[2] = system: BT-549 (Breast cancer); assay: NCI-60 screen (SRB, 48 h); type: cell-based; settings: Homo sapiens
[3] = system: Leukemia subpanel; assay: cells; settings: Homo sapiens
[4] = system: OVCAR-3 (Ovarian cancer); assay: cells; settings: Homo sapiens
[5] = system: Colon Cancer subpanel; assay: NCI-60 screen, subpanel; settings: Homo sapiens
[6] = system: Melanoma subpanel; assay: NCI-60 screen, subpanel; settings: Homo sapiens
[7] = system: Prostate cancer subpanel; assay: NCI-60 screen, subpanel; settings: Homo sapiens
[8] = system: Breast cancer subpanel; assay: NCI-60 screen, subpanel; settings: Homo sapiens
[9] = system: CCRF-CEM (Leukemia); assay: NCI-60 screen (SRB, 48 h); settings: Homo sapiens
[10] = system: K-562 (Leukemia); assay: NCI-60 screen (SRB, 48 h); settings: Homo sapiens
[11] = system: RPMI-8226 (Leukemia); assay: NCI-60 screen (SRB, 48 h); settings: Homo sapiens
[12] = system: A549/ATCC (NSC lung cancer); assay: NCI-60 screen (SRB, 48 h); settings: Homo sapiens
[13] = system: NCI-H23 (NSC lung cancer); assay: NCI-60 screen (SRB, 48 h); settings: Homo sapiens
[14] = system: NCI-H322M (NSC lung cancer); assay: NCI-60 screen (SRB, 48 h)
[15] = system: HCT-15 (Colon cancer); assay: NCI-60 screen (SRB, 48 h); settings: Homo sapiens
[16] = system: HT29 (Colon cancer); assay: NCI-60 screen (SRB, 48 h); settings: Homo sapiens
[17] = system: U251 (CNS cancer); assay: NCI-60 screen (SRB, 48 h); settings: Homo sapiens
[18] = system: SK-MEL-2 (Melanoma); assay: NCI-60 screen (SRB, 48 h); settings: Homo sapiens
[19] = system: SK-MEL-28 (Melanoma); assay: NCI-60 screen (SRB, 48 h); settings: Homo sapiens
[20] = system: UACC-257 (Melanoma); assay: NCI-60 screen (SRB, 48 h); settings: Homo sapiens
[21] = system: IGROV1 (Ovarian cancer); assay: NCI-60 screen (SRB, 48 h); settings: Homo sapiens
[22] = system: NCI/ADR-RES (Ovarian cancer); assay: NCI-60 screen (SRB, 48 h); settings: Homo sapiens
[23] = system: SN12C (Renal cancer); assay: NCI-60 screen (SRB, 48 h); settings: Homo sapiens
[24] = system: UO-31 (Renal cancer); assay: NCI-60 screen (SRB, 48 h)
[25] = system: DU-145 (Prostate cancer); assay: NCI-60 screen (SRB, 48 h); settings: Homo sapiens
[26] = system: MDA-MB-31/ATCC (Breast cancer); assay: NCI-60 screen (SRB, 48 h); settings: Homo sapiens
[27] = system: HS 578T (Breast cancer); assay: NCI-60 screen (SRB, 48 h); settings: Homo sapiens
[28] = system: panel of approximately 60 cancer cell lines; assay: NCI-60 screen (SRB, 48 h), full panel

CC1(C)NCCC[C@]2(C)[C@H]3C=CC4=C5C[C@@](C)(CO)CC[C@]5(C)CC[C@@]4(C)[C@]3(C)CC[C@@H]12 [Compound 6, azepano-glycyrrhetol-diene]
IC (TGI) ([1]; 48 h): 6.76 µM
GI50 ([1]; read-out: GI50): 2.49 µM
CC50 ([1]; read-out: LC50 (the source's name)): 29 µM
GI50 ([2]; BT-549): 3.46 µM
IC (TGI) ([2]; BT-549, 48 h): 12.7 µM
CC50 ([2]; BT-549, read-out: LC50 (the source's name)): 39 µM
IC (TGI) ([3]; 48 h, read-out: TGI MG_MID): 10.2 µM
GI50 ([3]; read-out: GI50 MG_MID): 3.02 µM
CC50 ([3]; read-out: LC50 MG_MID): 55.5 µM
GI50 ([4]; OVCAR-3): 2.69 µM
IC (TGI) ([4]; OVCAR-3, 48 h, read-out: TGI): 7.06 µM
CC50 ([4]; OVCAR-3, read-out: LC50): 34.8 µM
IC (TGI) ([5]; 48 h, read-out: TGI MG_MID): 16.7 µM
GI50 ([5]; read-out: GI50 MG_MID): 5.11 µM
CC50 ([5]; read-out: LC50 MG_MID): 48.2 µM
IC (TGI) ([6]; 48 h, read-out: TGI MG_MID): 11.9 µM
GI50 ([6]; read-out: GI50 MG_MID): 3.61 µM
CC50 ([6]; read-out: LC50 MG_MID): 36 µM
IC (TGI) ([7]; 48 h, read-out: TGI MG_MID): 8.66 µM
GI50 ([7]; read-out: GI50 MG_MID): 2.65 µM
CC50 ([7]; read-out: LC50 MG_MID): 26.2 µM
IC (TGI) ([8]; 48 h, read-out: TGI MG_MID): 19.1 µM
GI50 ([8]; read-out: GI50 MG_MID): 6.68 µM
CC50 ([8]; read-out: LC50 MG_MID): 55.1 µM
GI50 [9]: 3.52 µM
IC (TGI) ([9]; 48 h, read-out: TGI): 14.5 µM
CC50 ([9]; read-out: LC50): 65.3 µM
GI50 ([10]; K562): 3.18 µM
IC (TGI) ([10]; K562, 48 h, read-out: TGI): 10.8 µM
CC50 ([10]; K562, read-out: LC50): 43.8 µM
GI50 ([11]; RPMI-8226): 3.91 µM
IC (TGI) ([11]; RPMI-8226, 48 h, read-out: TGI): 14.9 µM
CC50 ([11]; RPMI-8226, read-out: LC50): 52.9 µM
GI50 ([12]; A549): 1.89 µM
IC (TGI) ([12]; A549, 48 h, read-out: TGI): 3.71 µM
CC50 ([12]; A549, read-out: LC50): 7.31 µM
GI50 ([13]; NCI-H23): 3.15 µM
IC (TGI) ([13]; NCI-H23, 48 h, read-out: TGI): 12.5 µM
CC50 ([13]; NCI-H23, read-out: LC50): 40 µM
Growth % of the Most Sensitive Cell Lines ([14]; 1 dose 10 µM): −99.73%
GI50 ([14]; Homo sapiens): 4.78 µM
IC (TGI) ([14]; Homo sapiens, 48 h, read-out: TGI): 16.9 µM
CC50 ([14]; Homo sapiens, read-out: LC50): 42.1 µM
GI50 ([15]; HCT-15): 4.21 µM
IC (TGI) ([15]; HCT-15, 48 h, read-out: TGI): 16.4 µM
CC50 ([15]; HCT-15, read-out: LC50): 45.4 µM
GI50 ([16]; HT-29): 3.25 µM
IC (TGI) ([16]; HT-29, 48 h, read-out: TGI): 13.8 µM
CC50 ([16]; HT-29, read-out: LC50): 41.8 µM
GI50 ([17]; U-251): 4.17 µM
IC (TGI) ([17]; U-251, 48 h, read-out: TGI): 15.9 µM
CC50 ([17]; U-251, read-out: LC50): 45.5 µM
GI50 ([18]; SK-MEL-2): 3.31 µM
IC (TGI) ([18]; SK-MEL-2, 48 h, read-out: TGI): 12.2 µM
CC50 ([18]; SK-MEL-2, read-out: LC50): 38.9 µM
GI50 ([19]; SK-MEL-28): 5.87 µM
IC (TGI) ([19]; SK-MEL-28, 48 h, read-out: TGI): 18.4 µM
CC50 ([19]; SK-MEL-28, read-out: LC50): 44 µM
GI50 ([20]; UACC-257): 5.24 µM
IC (TGI) ([20]; UACC-257, 48 h, read-out: TGI): 17 µM
CC50 ([20]; UACC-257, read-out: LC50): 43.8 µM
GI50 ([21]; IGROV-1): 4.08 µM
IC (TGI) ([21]; IGROV-1, 48 h, read-out: TGI): 14.8 µM
CC50 ([21]; IGROV-1, read-out: LC50): 46.6 µM
GI50 [22]: 2.02 µM
IC (TGI) ([22]; 48 h, read-out: TGI): 4.52 µM
CC50 ([22]; read-out: LC50): 10.4 µM
GI50 [23]: 3.34 µM
IC (TGI) ([23]; 48 h, read-out: TGI): 12 µM
CC50 ([23]; read-out: LC50): 41.7 µM
GI50 ([24]; Homo sapiens, UO-31): 3.59 µM
IC (TGI) ([24]; Homo sapiens, UO-31, 48 h, read-out: TGI): 15.7 µM
CC50 ([24]; Homo sapiens, UO-31, read-out: LC50): 42.1 µM
Growth % of the Most Sensitive Cell Lines ([24]; UO-31, 1 dose 10 µM): −98.13%
GI50 ([25]; DU-145): 2.25 µM
IC (TGI) ([25]; DU-145, 48 h, read-out: TGI): 5.02 µM
CC50 ([25]; DU-145, read-out: LC50): 13.8 µM
GI50 [26]: 14.5 µM
IC (TGI) ([26]; 48 h, read-out: TGI): 29.3 µM
CC50 ([26]; read-out: LC50): 59.2 µM
GI50 [27]: 3.2 µM
IC (TGI) ([27]; 48 h, read-out: TGI): 13.2 µM
CC50 ([27]; read-out: LC50): 71.2 µM
Positive Cytotoxic Effect (cell lines with percent growth < 0 / total) ([28]; 1 dose 10 µM): 59/59
number of cancer cell lines the compound was active against ([28]; 1 dose 10 µM): pronounced antiproliferative effect against the whole NCI-60 cancer cell line panel
activity at 10 µM ([28]; Homo sapiens, 48 h, read-out: Mean Growth, %): -77.2%
activity at 10 µM ([28]; Homo sapiens, 48 h, read-out: Range of Growth, %): -99.7 to -5.08%
IC (TGI) ([28]; Homo sapiens, 48 h, read-out: TGI MG_MID60, average over all cell lines): 13.2 µM
GI50 ([28]; Homo sapiens, read-out: GI50 MG_MID60): 4.21 µM
GI50 ([28]; Homo sapiens, read-out: GI50 against all human tumor cell lines): < 15 µM
CC50 ([28]; Homo sapiens, read-out: LC50 MG_MID60, average over all cell lines): 41.9 µM
